For one test, the system named is Saccharomyces cerevisiae. Put plainly: Assay for Antifungal Activity (yeast agar well zone of inhibition). It is filed as cell-based. The following applies: 48 hours. As to the method:
Yeast organisms (Saccharomyces cerevisiae) in logarithmic growth were plated on complete agar medium (YPD). The compound was dissolved in an appropriate aqueous or organic solvent and placed in wells punched in the agar. Plates were incubated for 48 hours and zones of inhibition were measured.
IC12^(nM) refers to the concentration of drug in the antifungal assay which produces a 12 mm zone of inhibition.

Test [1] deals with Spleen cells from BDF1 female mice. Put plainly: Mitogenesis Assay for Immunosuppressive Activity (concanavalin A-stimulated spleen cells, 3H-thymidine). It is filed as cell-based. The following applies: Concanavalin A (5 μg/ml), 72 hours. As to the method: Spleen cells from BDF1 female mice were established in RPMI with 10% fetal calf serum at 5×10^6 /ml. One hundred […] aliquots of this suspension (5×10^5 cells) were dispensed into 96-well round-bottomed microtiter plates (Linbro, Flow Laboratories). Concanavalin A (5 μg/ml) was added as the mitogenic stimulus, and the final volume in the microtiter wells was adjusted to 200 μL with RPMI. Cell cultures were incubated for 72 hours at 37 degrees C. in a 5% CO2 atmosphere and pulsed with 0.5μ Ci ^3 H-thymidine (specific activity […]) for the last 18 hour culture. The cells were harvested on an automated multiple sample harvester and cell-associated radioactivity counted in a Beckman liquid scintillation counter. The results are expressed as the mean values derived from quadruplicate measurements. Cell viability was determined by trypan blue exclusion after 72 hours of incubation. Compounds to be tested were added to the microtiter plates at the appropriate dilutions prior to the addition of cells.

In general, pIC50 refers to the IC50 on a negative log10 scale, so that one unit is a factor of ten.

SMILES strings stand for the structures. pIC50: −log10 of the molar value.

As to `CO[C@H]1C[C@@H]2CC[C@@H](C)C(O)(CC(=O)N3CCCC[C@H]3C(=O)O[C@H]([C@H](C)C[C@@H]3CC[C@@H](O)[C@H](OC)C3)CC(=O)[C@H](C)/C=C(\C)[C@@H](O)[C@@H](OC)C(=O)[C@H](C)C[C@H](C)/C=C/C=C/C=C/1C)O2` [14-methylene rapamycin], the IC (12 mm zone of inhibition) with Saccharomyces cerevisiae (Saccharomyces cerevisiae on YPD agar, read-out: Yeast IC12 (concentration of drug in the antifungal assay which produces a 12 mm zone of inhibition)) is 0.013 µM. Further, in the test with Saccharomyces cerevisiae (Saccharomyces cerevisiae), the “antifungal activity (in words)” value was “has both antifungal and immunomodulatory activity”. For the same compound, the “immunosuppressive / immunomodulatory activity (in words)” value in test [1] was “has both antifungal and immunomodulatory activity”. The compound also showed a pIC50 in test [1] (Mus musculus, 37 degrees C., 3H-thymidine) of 7.82.

The values above are taken from patent US5491229A, “Rapamycin derivative” (SmithKline Beecham PLC, priority 1991, dated 1996).
